Measurements taken from patent US5843916A, “Cyclic amp analogues, individually and in pairs, to inhibit neoplastic cell growth” (priority 1994, dated 1998).
pIC50: −log10 of the molar value. Where two headings read alike, the source gives them in different places.

How the values were obtained:
[1] = system: breast and colon cancer lines (MCF-7, T-47D, ZR-75-1, MCF-7ras, MDA-MB-231, BT-20, HBL-100, LS-174T, WiDr, HT-29); experiment: Growth inhibition of breast and colon cancer lines (FIG. 1); format: cell-based, human; conditions: 0.5 mM, alone
[2] = system: cultured human fibroblasts; conditions: cited from earlier work
[3] = system: four leukemic cell lines (HL-60, K-562, myc-K562, Molt-4); experiment: Growth inhibition of leukemic cell lines; format: cell-based, human
K-562 = experiment: Growth inhibition of leukemic cells (Table 12); format: cell-based; conditions: Homo sapiens, K562
[4] = system: breast (MCF-7) and colon (LS-174T) cancer cell lines; experiment: Growth inhibition of breast and colon cancer cells (Table 1); format: cell-based, human; conditions: Homo sapiens
Experimental: The compounds of the present invention were added using 100X concentrated stock solutions. At desired times, cell counts in duplicate were performed on a Coulter counter after harvesting the cells with gentle trypsinization. […] Cell counts were performed on each of three or more separate experiments, and the average values are expressed as percent growth inhibition as compared with untreated control cells. | ^a The values of percentage growth inhibition were determined from th | doseresponse curve experiments. Each value represents an average value an | range (in parentheses) obtained from three or more separate experiments. | The cell counts in duplicate were performed at day 3 and day 4 after two | treatments (day 0 and day 2) with analogs (seeding on day -1).

myc-K562 = experiment: Growth inhibition of leukemic cells (Table 12); format: cell-based; conditions: Homo sapiens
[5] = system: MCF-7ras breast cancer cell line; experiment: Synergistic growth inhibition by analogue combinations (Table 2); format: cell-based, human; conditions: footnote of Table 2
Experimental: All breast cancer cell lines were grown in IMEM supplemented with 10% fetal bovine serum, HEPES 20 mM, penicillin-streptomycin, and extra glutamine. Colon carcinoma cell lines were grown in EMEM supplemented with 10% FBS, EMEM, NEAA, HEPES 20 mM, extra glutamine, and penicillin-streptomycin. The cells were grown at 37° C. in humidified incubators in an atmosphere of 5% CO2.
For cell growth experiments, 2-3×10^5 cells/60 mm dish were seeded, and 24 hours later (Day 0), the medium was removed, and fresh medium and the additives were added then and every 48 hours thereafter. The compounds of the present invention were added using 100X concentrated stock solutions. At desired times, cell counts in duplicate were performed on a Coulter counter after harvesting the cells with gentle trypsinization.
Synergism quotient was defined as the net growth inhibitory effect of the analogue combination divided by the sum of the net analogue effects on growth inhibition. A quotient of >1 indicates a synergistic effect, while a quotient of <1 indicates an antagonistic effect.
Synergism of growth inhibition was determined by
treatment of cells with C-6 analogues and C-8 analogues alone
and in combination at Day 0 and Day 2 and counting the cell
^a Data are expressed as percentage growth inhibition in reference to
the growth of untreated control cells and represent average values and
ranges (in parentheses) of duplicate cell counts on three or more separat
experiments. The values for percentage growth inhibition of each analogue
^b The synergism quotient was defined as previously described.

Molt-4 = experiment: Growth inhibition of leukemic cells (Table 12); format: cell-based, human; conditions: Homo sapiens, MOLT-4; read-out: Inhibition of Growth IC50, Molt-4
HL-60 = experiment: Growth inhibition of leukemic cells (Table 12); format: cell-based; conditions: Homo sapiens
[6] = system: breast and colon cancer cells; experiment: Effect on cell morphology (FIG. 2); format: cell-based, human; conditions: 100 μM; three to four days
Description: The photographs were taken on Day 4, ×160.
Furthermore, the synergistic growth inhibitory effect of C-6 and C-8 analogue combinations was also reflected in the change in the cell morphology.

[7] = target: T1, Protein kinase type II (cAKII) (Bos taurus, UniProt P00515); experiment: Protein kinase activation (Table 15); format: biochemical, bovine (heart)
T1 construct: prepared from rabbit skeletal muscle and bovine heart; from tissue; host or cells: bovine heart
Experimental: (§1) ATP to Kemptide as described by Ogreid et al., Eur. J. Biochem. 150: 219-227 (1985).
(§2) Protein kinases types I (cAKI) and II (cAKII) were
(§3) prepared from rabbit skeletal muscle and bovine heart,
(§4) respectively, as described in D.o slashed.skeland et al. (J. Biol.
(§5) of the protein kinase in Ogreid et al. (Eur. J. Biochem.

[8] = target: T2, RII, regulatory subunit of cAMP-dependent protein kinase type II (Bos taurus, UniProt P00515); experiment: Binding affinity for RII (Table 14)
T2 construct: from tissue
Experimental: (§6) RI and RII are the regulatory subunits of cAMP-dependent protein
(§7) kinase type I and type II, respectively. Site A (Site 2) and Site B
(§8) (RI and RII): the affinities of analogues for Site A and Site B were
(§9) determined by the measurement of kinetic constants (inhibition constant,
(§10) Ki), and the values are expressed as the relative affinity Ki
(§11) (analogue), i.e., the ratio between the apparent inhibition constant for
(§12) cAMP and the analogue, as described in Ogreid et al., Eur. J. Biochem.

HL-60 leukemia cells = experiment: Surface antigen expression of HL-60 cells (Example 5); format: cell-based, human; conditions: 100 μM
Experimental: (§13) Briefly, cells were fixed in 70% ethanol and stored at 4° C. before analysis. Nuclear DNA was stained with propidium iodide, 50 μg/ml in phosphate-buffered saline (pH 7.4), for 30 minutes at room temperature. RNase was added to avoid double-helix RNA staining. The DNA content of cells was analyzed by a FACScan flow cytometer coupled with a Hewlett-Packard computer. Cell cycle data analysis was performed by a Cell-FIT program according to the method of Dean (Cell Tissue Kinet. 13: 299-308 (1980)) (Becton Dickinson Immunocytometry Systems). Pulse area versus pulse width gating was performed to exclude doublets from the G2 -M region. For each sample, 20,000 events were stored in list mode. Cell surface antigen analysis was performed by flow cytometry with FACScan using a panel of monoclonal antibodies reactive with either monocytic or myeloid cells.
The effect of Rp- and Sp-8-Cl-cAMPS on the expression of differentiation markers in HL-60 cells was examined to determine if the growth-arrested HL-60 cells are more differentiated than untreated cells. […] For each sample, 2×10^4 cells were analyzed. Cell surface antigen analysis was performed by flow cytometry with FACScan. Cell gating was performed using forward and side scatter.

[9] = target: T3, RI, regulatory subunit of cAMP-dependent protein kinase type I (Oryctolagus cuniculus, UniProt G1TDN4); experiment: Binding affinity for RI (Table 14)
T3 construct: from tissue
Experimental: as §6, §7, §8, §9, §10, §11, §12

[10] = system: LS-174T human colon carcinoma cells; experiment: Growth inhibition of LS-174T cells (Example 4, Table 18); format: cell-based
Experimental: LS-174T human colon carcinoma cells were obtained from the National Cancer Institute, Division of Cancer Treatment, Bethesda, Md., and were grown in Eagle's minimum essential medium supplemented with 10% heat-inactivated fetal bovine serum, Eagle's minimum essential medium nonessential amino acids, 20 mM 4-(2-hydroxyethyl)-1-piperazineethanesulfonic acid, 2mM glutamine, and penicillin-streptomycin (Gibco). The medium was changed every 48 hours.
LS-174T cells were seeded at a density of 2×10^5 / 60 mm dish. […] At desired times, cell counts were performed in duplicate on a Coulter Counter after harvesting cells with gentle trypsinization.
The percentage growth inhibition values shown at 10
and 50 μM analogue concentrations were determined from
the dose-response curve experiments like those shown in
FIG. 1 and represent an average value obtained for each
analogue from two or more separate experiments. Sp-6-SET-

HL-60 Cells = experiment: Cell cycle kinetics of HL-60 cells (Table 17); format: cell-based, human; conditions: for % G2 M / % G0-G1 / % S: 96 hours; for % G2 M: control 8.3; for % G0-G1: control 45.7; for % S: control 46
Experimental: as §13

[11] = system: HL-60 human leukemia cells; experiment: Growth inhibition of HL-60 leukemia cells (Example 3, Table 16); format: cell-based; conditions: for pIC50: Homo sapiens
Experimental: HL-60 leukemic cells were obtained from the American Type Culture Collection (Rockville, Md.) and were grown in suspension culture in RPMI 1640 supplemented with 10% heat-inactivated fetal bovine serum, streptomycin (500 μg/ml), penicillin (50 units/ml), and glutamine (1 mM) (Gibco, Grand Island, N.Y.).
Cell counts were performed at desired times on a Coulter Counter.
The IC50 values were determined from the dose-
represent an average value obtained for each analogue
from two or more separate experiments carried out from 3
days or 6 days. Initial cell number, 1 × 10^5 /dish.
Typical numbers of untreated control cells at day 3 and
viability in treated and control cells.

[12] = target: T4, Protein kinase type I (cAKI) (Oryctolagus cuniculus, UniProt G1TDN4); experiment: Protein kinase activation (Table 15); format: biochemical, rabbit (skeletal muscle)
T4 construct: prepared from rabbit skeletal muscle and bovine heart; from tissue; host or cells: rabbit skeletal muscle
Experimental: as §1, §2, §3, §4, §5

[13] = 72 h, 50 μM, day 3, average (range), read-out: % Growth Inhibition, Day 3
[14] = 96 h, 50 μM, day 4, average (range), read-out: % Growth Inhibition, Day 4
[15] = 50 micromolar, read-out: growth inhibition
[16] = half-maximum activation, U. M.: unmeasurable

T3 sequence (G1TDN4 1-381): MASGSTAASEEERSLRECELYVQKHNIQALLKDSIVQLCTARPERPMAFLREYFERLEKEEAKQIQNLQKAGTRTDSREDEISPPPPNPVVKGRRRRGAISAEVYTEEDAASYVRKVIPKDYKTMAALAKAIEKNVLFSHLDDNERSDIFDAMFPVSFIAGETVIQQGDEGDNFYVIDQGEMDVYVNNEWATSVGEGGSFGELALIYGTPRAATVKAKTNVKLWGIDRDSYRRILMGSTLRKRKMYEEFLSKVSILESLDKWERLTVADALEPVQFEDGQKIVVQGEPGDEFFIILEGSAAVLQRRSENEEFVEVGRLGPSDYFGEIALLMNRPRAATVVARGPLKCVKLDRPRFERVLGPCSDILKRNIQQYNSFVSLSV
T2 sequence (P00515 whole entry): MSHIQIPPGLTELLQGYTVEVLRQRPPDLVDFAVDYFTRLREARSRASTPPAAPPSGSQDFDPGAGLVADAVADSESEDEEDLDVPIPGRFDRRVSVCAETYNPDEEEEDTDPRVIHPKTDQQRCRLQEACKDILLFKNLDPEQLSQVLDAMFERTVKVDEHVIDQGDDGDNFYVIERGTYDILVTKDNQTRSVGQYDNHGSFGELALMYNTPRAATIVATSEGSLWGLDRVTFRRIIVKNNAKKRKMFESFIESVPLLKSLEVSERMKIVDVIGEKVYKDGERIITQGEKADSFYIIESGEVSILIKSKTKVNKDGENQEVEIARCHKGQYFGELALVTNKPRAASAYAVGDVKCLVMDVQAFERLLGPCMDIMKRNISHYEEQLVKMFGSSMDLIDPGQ
T1 sequence (P00515 2-401 limits assumed): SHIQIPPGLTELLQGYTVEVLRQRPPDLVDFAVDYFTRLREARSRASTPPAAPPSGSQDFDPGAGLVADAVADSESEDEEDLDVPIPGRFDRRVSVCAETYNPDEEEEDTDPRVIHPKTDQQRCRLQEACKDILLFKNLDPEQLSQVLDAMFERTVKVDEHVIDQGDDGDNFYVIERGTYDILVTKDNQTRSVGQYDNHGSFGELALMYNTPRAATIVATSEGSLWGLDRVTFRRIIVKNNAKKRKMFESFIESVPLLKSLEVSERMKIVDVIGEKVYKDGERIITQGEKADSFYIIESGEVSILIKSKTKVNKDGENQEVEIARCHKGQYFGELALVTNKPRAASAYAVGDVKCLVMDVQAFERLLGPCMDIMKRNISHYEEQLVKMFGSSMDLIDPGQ
T4 sequence (G1TDN4 1-381): as the sequence (G1TDN4 1-381) above

CC(C)Cn1c(=O)n(C)c(=O)c2[nH]cnc21 [1-methyl-3-isobutylxanthine]
growth inhibitory effect [1]: little or no growth inhibitory effect | DNA synthesis ([2]; added during first eight hours after serum addition): not delayed | DNA synthesis ([2]; added more than eight hours after serum addition): inhibitory | growth inhibitory effect ([3]; 0.5 mM, alone): little or no growth inhibitory effect

CNc1nc2c(N)ncnc2n1[C@@H]1O[C@@H]2COP(=O)(O)O[C@H]2[C@H]1O [8-methylamino-cAMP]
pIC50 (K-562): 4.00 | inhibition at 50 µM [4, 13]: 14% | inhibition at 50 µM [4, 14]: 15% | inhibition at 50 µM [4, 15]: ≤ 20% | pIC50 (myc-K562): 4.00 | times less potent than 8-Cl-cAMP ([3]; leukemic cell lines): 5-20 times | percentage growth inhibition of each analogue when added alone [5]: 10% | pIC50 (Molt-4): 4.00 | pIC50 (HL-60): 4.00

CSc1nc2c(N)ncnc2n1[C@@H]1O[C@@H]2COP(=O)(O)O[C@H]2[C@H]1O [8-methylthio-cAMP]
pIC50 (K-562): 4.00 | inhibition at 50 µM [4, 13]: 46% | inhibition at 50 µM [4, 14]: 42% | inhibition at 50 µM [4, 15]: 40 to 75% | cell morphology [6]: induced the morphological change | pIC50 (myc-K562): 4.00 | times less potent than 8-Cl-cAMP ([3]; leukemic cell lines): 5-20 times | pIC50 (Molt-4): 4.00 | pIC50 (HL-60): 4.00

O=C(Nc1ncnc2c1ncn2[C@@H]1O[C@@H]2COP(=O)(O)O[C@H]2[C@H]1O)c1ccccc1 [N^6 -benzoyl-cAMP]
pIC50 (K-562): 4.35 | inhibition at 50 µM [4, 13]: 30% | inhibition at 50 µM [4, 14]: 28% | pIC50 (myc-K562): 4.30 | pIC50 ([3]; Homo sapiens, leukemic cell lines, range): 4.30 to 4.40 | percentage growth inhibition of each analogue when added alone [5]: 10% | pIC50 (Molt-4): 4.40 | pIC50 (HL-60): 4.30

Nc1ncnc2c1nc(Cl)n2[C@@H]1O[C@@H]2CO[P@](O)(=S)O[C@H]2[C@H]1O [Sp-8-Cl-cAMPS, Sp-(axial exocyclic sulfursubstitution) 8-chloro-adenosine 3': 5'-monophosphorothioate]
Activation Constant (Ka), cAKII [7, 16]: 2.5 × 10^-7 | increase in the Ka for protein kinase type II vs 8-Cl-cAMP ([7]; vs 8-Cl-cAMP): 2.5 fold | relative affinity Ki (cAMP)/Ki (analogue), RII Site A ([8]; Site A (Site 2)): 0.0023 | relative affinity Ki (cAMP)/Ki (analogue), RII Site B ([8]; Site B (Site 1)): 2.4 | decrease in affinity for Site A of RII vs corresponding cyclophosphate ([8]; vs cyclophosphate): 22 fold | decrease in affinity for Site B of RII vs corresponding cyclophosphate ([8]; vs cyclophosphate): 1.9 fold | surface antigen expression (HL-60 leukemia cells): no appreciable effect on the surface antigen expression | relative affinity Ki (cAMP)/Ki (analogue), RI Site A ([9]; Site A (Site 2)): 0.18 | relative affinity Ki (cAMP)/Ki (analogue), RI Site B ([9]; Site B (Site 1)): 0.037 | decrease in affinity for Site A of RI vs corresponding cyclophosphate ([9]; vs cyclophosphate): 15 fold | decrease in affinity for Site B of RI vs corresponding cyclophosphate ([9]; vs cyclophosphate): 54 fold | inhibition at 10 µM ([10]; Homo sapiens, LS174T): 20% | inhibition at 50 µM ([10]; Homo sapiens, LS174T): 40% | growth inhibitory potency ([10]; LS-174T): moderate potency | % G2 M (HL-60 Cells; 10 μM): 8.9% | % G0-G1 (HL-60 Cells; 10 μM): 46.8% | % S (HL-60 Cells; 10 μM): 44.3% | % G2 M (HL-60 Cells; 50 μM): 8.6% | % G0-G1 (HL-60 Cells; 50 μM): 46% | % S (HL-60 Cells; 50 μM): 45.4% | % G2 M (HL-60 Cells; 100 μM): 9.0% | % G0-G1 (HL-60 Cells; 100 μM): 56% | % S (HL-60 Cells; 100 μM): 35% | cell cycle phase distribution (HL-60 Cells; HL-60, 96 hours in Table 17): not appreciably different | pIC50 ([11]; HL-60, 72 h, read-out: Growth inhibition (IC50), Day 3): 4.00 | pIC50 ([11]; HL-60, 144 h, read-out: Growth inhibition (IC50), Day 6): 5.10 | fold less potent than 8-Cl-cAMP ([11]; growth inhibition HL-60, day 6): 20 fold | Activation Constant (Ka), cAKI [12, 16]: 2.5 × 10^-7 | increase in the Ka for protein kinase type I vs 8-Cl-cAMP ([12]; vs 8-Cl-cAMP): 11 fold
